The experiment addresses T1, human CARM1 (PRMT4) (Flag- and His-tagged) (Homo sapiens, UniProt Q86X55).
T1 construct: Flag-CARM1-His; made in house; host or cells: HEK 293F cells (BacMam baculovirus)
T1 sequence (Q86X55 1-585 isoform Q86X55-1): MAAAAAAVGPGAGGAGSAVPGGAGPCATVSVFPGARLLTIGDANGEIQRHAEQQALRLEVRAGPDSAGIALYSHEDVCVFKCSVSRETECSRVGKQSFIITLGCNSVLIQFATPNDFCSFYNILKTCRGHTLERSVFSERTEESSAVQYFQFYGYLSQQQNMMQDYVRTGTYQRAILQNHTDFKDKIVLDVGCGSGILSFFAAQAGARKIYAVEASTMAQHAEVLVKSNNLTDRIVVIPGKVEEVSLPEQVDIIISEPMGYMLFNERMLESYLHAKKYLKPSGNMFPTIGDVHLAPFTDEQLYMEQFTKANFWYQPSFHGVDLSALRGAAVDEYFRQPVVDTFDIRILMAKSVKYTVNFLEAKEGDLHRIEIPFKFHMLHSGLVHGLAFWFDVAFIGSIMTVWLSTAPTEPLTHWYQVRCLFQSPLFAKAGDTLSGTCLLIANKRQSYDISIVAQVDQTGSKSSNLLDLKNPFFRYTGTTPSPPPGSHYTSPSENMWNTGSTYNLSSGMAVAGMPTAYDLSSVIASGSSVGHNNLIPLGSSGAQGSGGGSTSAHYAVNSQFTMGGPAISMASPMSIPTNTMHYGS
Nature of the experiment: CARM1 Biochemical Assay (3H-SAM Flashplate, peptide substrate). Particulars: single experiment or average of multiple experiments. The source says: General Materials. S-adenosylmethionine (SAM), S-adenosylhomocysteine (SAH), bicine, Tween20, dimethylsulfoxide (DMSO), bovine skin gelatin (BSG), sodium butyrate and Tris(2-carboxyethyl)phosphine hydrochloride solution (TCEP) were purchased from Sigma-Aldrich at the highest level of purity possible. ^3H-SAM was purchase from American Radiolabeled Chemicals with a specific activity of 80 Ci/mmol. 384-well streptavidin Flashplates were purchased from PerkinElmer.
Substrates. Peptide representative of human histone H3 residues 16-30 was synthesized with an N-terminal linker-affinity tag motif and a C-terminal amide cap by 21st Century Biochemicals. The peptide was purified by high-performance liquid chromatography (HPLC) to greater than 95% purity and confirmed by liquid chromatography mass spectrometry (LC-MS). The sequence was Biot-Ahx-[…]-amide and contained a monomethylated arginine at position 26 (SEQ ID NO.:14).
Molecular Biology: Human CARM1 (PRMT4) (NM_199141.1) transcript clone was amplified from an HEK 293 cDNA library, incorporating a flanking 5′ sequence encoding a FLAG tag ([…]) (SEQ ID NO.:6) fused directly to Ala 2 of CARM1 and 3′ sequence encoding a hexa His sequence ([…]) (SEQ ID NO.:15) fused directly to Ser 608. The gene sequence encoding isoform1 containing a deletion of amino acids 539-561 was amplified subsequently and subcloned into pFastBacMam (Viva Biotech).
Protein Expression. Recombinant baculovirus were generated according to Bac-to-Bac kit instructions (Life Technologies). […] Infections were carried out at 37° C. for 48 hours, harvested by centrifugation, and stored at −80° C. for purification.
Protein Purification. […] Column was washed with 500 mM NaCl in buffer A and Flag-CARM1-His was eluted with 200 ug/ml FLAG peptide in buffer A. Pooled fractions were dialyzed in 20 mM Tris, 150 mM NaCl, 5% glycerol and 1 mM DTT, pH 7.8. The purity of recovered protein was 94.
General Procedure for CARM1 Enzyme Assays on Peptide Substrates. The assays were all performed in a buffer consisting of 20 mM Bicine (pH=7.6), 1 mM TCEP, 0.005% BSG, and 0.002% Tween 20, prepared on the day of use. Compounds in 100% DMSO (1 ul) were spotted into a polypropylene 384-well V-bottom plates (Greiner) using a Platemate Plus outfitted with a 384-channel head (Thermo Scientific). DMSO (1 ul) was added to Columns 11, 12, 23, 24, rows A-H for the maximum signal control and 1 ul of SAH, a known product and inhibitor of CARM1, was added to columns 11, 12, 23, 24, rows I-P for the minimum signal control. A cocktail (40 ul) containing the CARM1 enzyme was added by Multidrop Combi (Thermo-Fisher). The compounds were allowed to incubate with CARM1 for 30 min at room temperature, then a cocktail (10 ul) containing ^3H-SAM and peptide was added to initiate the reaction (final volume=51 ul). The final concentrations of the components were as follows: CARM1 was 0.25 nM, ^3H-SAM was 30 nM, peptide was 250 nM, SAH in the minimum signal control wells was 1 mM, and the DMSO concentration was 2%. The assays were stopped by the addition of non-radiolabeled SAM (10 ul) to a final concentration of 300 uM, which dilutes the ^3H-SAM to a level where its incorporation into the peptide substrate is no longer detectable. 50 ul of the reaction in the 384-well polypropylene plate was then transferred to a 384-well Flashplate and the biotinylated peptides were allowed to bind to the streptavidin surface for at least 1 hour before being washed once with 0.1% Tween20 in a Biotek ELx405 plate washer. The plates were then read in a PerkinElmer TopCount plate reader to measure the quantity of ^3H-labeled peptide bound to the Flashplate surface, measured as disintegrations per minute (dpm) or alternatively, referred to as counts per minute (cpm).
Where dpm=disintegrations per minute, cmpd=signal in assay well, and min and max are the respective minimum and maximum signal controls. […]

On to `CNCCN(C)Cc1c[nH]nc1C#Cc1ccccc1` [Compound 3], for which the midpoint of inhibition, the IC50, lay at 1.23 µM.

These data come from patent US11512053B2, “Arginine methyltransferase inhibitors and uses thereof” (priority 2013, dated 2022).
